Laboratory results taken from ChEMBL document CHEMBL3882725, “Indazole derivatives as JNK inhibitors and compositions and methods related thereto” (2002).
pIC50: −log10 of the molar value.

Biological target: Mitogen-activated protein kinase 9 (Homo sapiens, UniProt P45984)
Experiment: Inhibition of His6-tagged JNK2 (unknown origin) assessed as reduction in c-Jun phosphorylation using GST-c-Jun (1 to 79 residues) and [gamma32P]ATP incubated for 1 hr by scintillation counting assay

Sequence of Mitogen-activated protein kinase 9 (P45984 whole entry, the tested form may be a part): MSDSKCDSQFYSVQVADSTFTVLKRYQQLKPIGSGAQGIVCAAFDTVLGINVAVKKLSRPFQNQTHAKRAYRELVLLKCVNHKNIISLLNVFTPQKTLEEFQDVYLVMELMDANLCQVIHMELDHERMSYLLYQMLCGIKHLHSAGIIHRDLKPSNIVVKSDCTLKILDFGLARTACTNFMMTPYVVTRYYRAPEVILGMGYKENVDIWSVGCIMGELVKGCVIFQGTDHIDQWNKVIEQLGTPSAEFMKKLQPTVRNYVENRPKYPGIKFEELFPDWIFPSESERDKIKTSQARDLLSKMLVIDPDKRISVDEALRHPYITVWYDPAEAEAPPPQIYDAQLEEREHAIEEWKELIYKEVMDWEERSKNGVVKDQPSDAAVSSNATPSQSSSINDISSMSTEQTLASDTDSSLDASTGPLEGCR

pIC50 | Compound
5.00 to 6.30 | O=C(Cc1ccccc1)Nc1cccc(-c2n[nH]c3ccc(-c4nnc[nH]4)cc23)c1
5.00 to 6.00 | COC(=O)CCc1nnc(-c2ccc3[nH]nc(-c4ccc(F)cc4)c3c2)[nH]1
5.00 to 6.00 | c1nc(-c2ccc3[nH]nc(-c4ccc5c(c4)OCO5)c3c2)n[nH]1
5.00 to 6.00 | Fc1ccc(-c2n[nH]c3ccc(-c4nc(-c5ccncc5)n[nH]4)cc23)cc1
5.00 to 6.30 | Nc1cccc(-c2n[nH]c3ccc(-c4nnn[nH]4)cc23)c1
≥ 5.00 | O=C(c1ccc2[nH]nc(-c3ccc(F)cc3)c2c1)N1CCNCC1
5.00 to 6.00 | COc1ccc(-c2n[nH]c3ccc(C(N)=O)cc23)cc1OC
5.00 to 6.00 | FC(F)(F)c1ccc(-c2n[nH]c3ccc(-c4ncn[nH]4)cc23)cc1
5.00 to 6.00 | NC(=O)c1ccc2[nH]nc(-c3cc4ccccc4o3)c2c1
5.00 to 6.30 | Clc1ccc(-c2n[nH]c3ccc(-c4nnn[nH]4)cc23)cc1
5.00 to 6.00 | Nc1ccc(-c2n[nH]c3ccc(-c4nc[nH]n4)cc23)cc1
5.00 to 6.00 | NC(=O)c1ccc2[nH]nc(-c3cc4ccccc4s3)c2c1
5.00 to 6.30 | COCC(=O)Nc1cccc(-c2n[nH]c3ccc(-c4nnc[nH]4)cc23)c1
5.00 to 6.30 | CC(C)c1n[nH]c(-c2ccc3[nH]nc(-c4ccc(F)cc4)c3c2)n1
5.00 to 6.30 | c1cc(OCCN2CCOCC2)cc(-c2n[nH]c3ccc(-c4nnn[nH]4)cc23)c1
5.00 to 6.00 | Oc1ccc(-c2nnc(-c3ccc4[nH]nc(-c5ccc(F)cc5)c4c3)[nH]2)cc1
5.00 to 6.00 | Nc1cccc(-c2n[nH]c3ccc(-c4nnc[nH]4)cc23)c1
5.00 to 6.00 | CC(C)c1ccc(-c2n[nH]c3ccc(-c4nnn[nH]4)cc23)cc1
5.00 to 6.30 | c1ccc2oc(-c3n[nH]c4ccc(-c5nnn[nH]5)cc34)cc2c1

pIC50 | Compound
5.00 to 6.00 | CC(=O)c1ccc2[nH]nc(-c3ccc(F)cc3)c2c1
≥ 5.00 | O=C(O)CCc1ccc2[nH]nc(-c3ccc(F)cc3)c2c1
5.00 to 6.30 | CC(O)c1nnc(-c2ccc3[nH]nc(-c4ccc(F)cc4)c3c2)[nH]1 (stereo unspecified)
5.00 to 6.00 | NC(=O)c1ccc2[nH]nc(-c3ccc(O)cc3)c2c1
5.00 to 6.00 | c1nc(-c2ccc3[nH]nc(-c4ccsc4)c3c2)n[nH]1
≥ 5.00 | O=[N+]([O-])c1cccc(/C=C/c2ccc3[nH]nc(-c4ccc(F)cc4)c3c2)c1
5.00 to 6.00 | C[S+]([O-])c1ccc(-c2n[nH]c3ccc(-c4ncn[nH]4)cc23)cc1 (stereo unspecified)
5.00 to 6.30 | COc1ccc(-c2n[nH]c3ccc(-c4nnn[nH]4)cc23)cc1
≥ 5.00 | O=C(NCCCN1CCOCC1)c1ccc2[nH]nc(-c3ccc(F)cc3)c2c1
5.00 to 6.30 | c1csc(-c2n[nH]c3ccc(-c4nnn[nH]4)cc23)c1
5.00 to 6.00 | C(#Cc1n[nH]c2ccc(-c3nnc[nH]3)cc12)c1ccccc1
5.00 to 6.00 | Cc1n[nH]c(-c2ccc3[nH]nc(-c4ccc(F)cc4)c3c2)n1
5.00 to 6.30 | O=C(Nc1cccc(-c2n[nH]c3ccc(-c4nc[nH]n4)cc23)c1)c1cccnc1
5.00 to 6.00 | CN(C)c1ccc(-c2n[nH]c3ccc(C(N)=O)cc23)cc1
5.00 to 6.30 | c1cc(-c2n[nH]c3ccc(-c4nnn[nH]4)cc23)ccn1
≥ 5.00 | Fc1ccc(-c2n[nH]c3ccc(/C=C/c4ccncc4)cc23)cc1
5.00 to 6.00 | CCOC(=O)Cc1n[nH]c(-c2ccc3[nH]nc(-c4ccc(F)cc4)c3c2)n1
5.00 to 6.30 | COCC(=O)Nc1cccc(-c2n[nH]c3ccc(-c4nn[nH]n4)cc23)c1
≥ 5.00 | O=C(NOCc1ccccc1)c1ccc2[nH]nc(-c3ccc(F)cc3)c2c1

pIC50 | Compound
5.00 to 6.00 | Clc1ccc(/C=C/c2n[nH]c3ccc(-c4nc[nH]n4)cc23)cc1
5.00 to 6.00 | Oc1ccc(-c2n[nH]c3ccc(-c4ncn[nH]4)cc23)cc1
5.00 to 6.30 | c1coc(-c2n[nH]c3ccc(-c4nnn[nH]4)cc23)c1
5.00 to 6.30 | O=C(CCN1CCCCC1)Nc1cccc(-c2n[nH]c3ccc(-c4nn[nH]n4)cc23)c1
5.00 to 6.00 | Clc1ccc(-c2n[nH]c3ccc(-c4nc[nH]n4)cc23)cc1Cl
5.00 to 6.30 | CC(Oc1ccccc1)C(=O)Nc1cccc(-c2n[nH]c3ccc(-c4nn[nH]n4)cc23)c1 (stereo unspecified)
5.00 to 6.30 | O=C(Nc1cccc(-c2n[nH]c3ccc(-c4nn[nH]n4)cc23)c1)c1ccco1
5.00 to 6.00 | CS(=O)(=O)Nc1cccc(-c2n[nH]c3ccc(-c4nnc[nH]4)cc23)c1
≥ 5.00 | Fc1ccc(-c2n[nH]c3ccc(/C=C/c4ccccn4)cc23)cc1
5.00 to 6.00 | Fc1ccc(-c2n[nH]c3ccc(-c4nc(-c5ccccc5)n[nH]4)cc23)cc1
5.00 to 6.00 | Cn1cncc1CCNC(=O)c1ccc2[nH]nc(-c3ccc(F)cc3)c2c1
≥ 5.00 | COC(=O)c1ccc2[nH]nc(-c3cc4ccccc4s3)c2c1
5.00 to 6.00 | O=C(NCC1CCCC[C@H]1O)c1ccc2[nH]nc(-c3ccc(F)cc3)c2c1 (stereo partly specified)
5.00 to 6.00 | Fc1ccc(-c2n[nH]c3ccc(-c4nnc(-c5cccnc5)[nH]4)cc23)cc1
5.00 to 6.00 | COc1ccc(-c2n[nH]c3ccc(-c4ncn[nH]4)cc23)cc1
5.00 to 6.30 | C(=C\c1n[nH]c2ccc(-c3nnn[nH]3)cc12)/c1ccccc1
≥ 5.00 | c1cncc(-c2n[nH]c3ccc(-c4nnn[nH]4)cc23)c1
5.00 to 6.00 | O=C(O)/C=C/c1ccc2[nH]nc(-c3ccc(F)cc3)c2c1
5.00 to 6.30 | c1cc(-c2n[nH]c3ccc(-c4nnn[nH]4)cc23)cs1

Continued, molecule first:

Compound | pIC50
O=C(Nc1cccc(-c2n[nH]c3ccc(-c4nc[nH]n4)cc23)c1)c1ccco1 | 5.00 to 6.30
CS(=O)(=O)c1ccc(-c2n[nH]c3ccc(-c4ncn[nH]4)cc23)cc1 | 5.00 to 6.00
CC(C)c1cccc(-c2n[nH]c3ccc(-c4nc[nH]n4)cc23)c1 | 5.00 to 6.00
CN(C)CCOc1ccc(-c2n[nH]c3ccc(C(N)=O)cc23)cc1 | 5.00 to 6.00
NC(=O)CCCNC(=O)c1ccc2[nH]nc(-c3ccc(F)cc3)c2c1 | 5.00 to 6.00
CCOC(=O)CCCc1nnc(-c2ccc3[nH]nc(-c4ccc(F)cc4)c3c2)[nH]1 | 5.00 to 6.00
CC(C)COc1ccc(-c2n[nH]c3ccc(-c4nnn[nH]4)cc23)cc1 | 5.00 to 6.00
CC(C)(C)OC(=O)NNC(=O)c1ccc2[nH]nc(-c3ccc(F)cc3)c2c1 | 5.00 to 6.00
c1ccc2cc(-c3n[nH]c4ccc(-c5ncn[nH]5)cc34)ccc2c1 | 5.00 to 6.00
Fc1ccc(-c2n[nH]c3ccc(-c4nnc(Cc5ccccc5)[nH]4)cc23)cc1 | 5.00 to 6.00
CN(C)CCOc1ccc(-c2n[nH]c3ccc(-c4ncn[nH]4)cc23)cc1 | 5.00 to 6.00
Nc1ccc(-c2nnc(-c3ccc4[nH]nc(-c5ccc(F)cc5)c4c3)[nH]2)cc1 | 5.00 to 6.00
C(=C\c1n[nH]c2ccc(-c3nc[nH]n3)cc12)/c1ccccc1 | 5.00 to 6.00
O=C(NCc1ccccn1)c1ccc2[nH]nc(-c3ccc(F)cc3)c2c1 | 5.00 to 6.00
c1ccc2sc(-c3n[nH]c4ccc(-c5nn[nH]n5)cc34)cc2c1 | 5.00 to 6.30
O=C(O)Cc1nnc(-c2ccc3[nH]nc(-c4ccc(F)cc4)c3c2)[nH]1 | 5.00 to 6.00
NC(=O)c1ccc2[nH]nc(-c3ccc4ccccc4c3)c2c1 | 5.00 to 6.00
Oc1ccccc1-c1n[nH]c2ccc(-c3nnn[nH]3)cc12 | 5.00 to 6.00
O=C(NO)c1ccc2[nH]nc(-c3ccc(F)cc3)c2c1 | 5.00 to 6.00
c1ccc2cc(-c3n[nH]c4ccc(-c5nnn[nH]5)cc34)ccc2c1 | 5.00 to 6.30
COc1ccccc1-c1n[nH]c2ccc(-c3nnn[nH]3)cc12 | 5.00 to 6.00
NC(=O)c1ccc2[nH]nc(-c3ccoc3)c2c1 | 5.00 to 6.00
O=C(NCc1cccnc1)c1ccc2[nH]nc(-c3ccc(F)cc3)c2c1 | 5.00 to 6.00
O=C(Nc1nnn[nH]1)c1ccc2[nH]nc(-c3ccc(F)cc3)c2c1 | 5.00 to 6.00
C(#Cc1n[nH]c2ccc(-c3nnn[nH]3)cc12)c1ccccc1 | 5.00 to 6.00
Oc1cccc(-c2n[nH]c3ccc(-c4nnn[nH]4)cc23)c1 | 5.00 to 6.30
COc1cccc(-c2n[nH]c3ccc(-c4nnn[nH]4)cc23)c1 | 5.00 to 6.30

Compound | pIC50
c1ccc2oc(-c3n[nH]c4ccc(-c5nc[nH]n5)cc34)cc2c1 | 5.00 to 6.30
CC(C)c1cccc(-c2n[nH]c3ccc(C(N)=O)cc23)c1 | ≥ 5.00
Fc1ccc(-c2n[nH]c3ccc(CCc4ccccc4)cc23)cc1 | ≥ 5.00
CN(C)c1ccc(-c2n[nH]c3ccc(-c4ncn[nH]4)cc23)cc1 | 5.00 to 6.00
OC(Cc1ccccc1)c1ccc2[nH]nc(-c3ccc(F)cc3)c2c1 (stereo unspecified) | 5.00 to 6.00
NC(=O)CCNC(=O)c1ccc2[nH]nc(-c3ccc(F)cc3)c2c1 | 5.00 to 6.00
O=C(Cc1ccccc1)c1ccc2[nH]nc(-c3ccc(F)cc3)c2c1 | ≥ 5.00
c1ccc(CCc2n[nH]c3ccc(-c4nnn[nH]4)cc23)cc1 | 5.00 to 6.00
CC(=O)Nc1cccc(-c2n[nH]c3ccc(-c4ncn[nH]4)cc23)c1 | 5.00 to 6.00
CC(O)CNC(=O)c1ccc2[nH]nc(-c3ccc(F)cc3)c2c1 (stereo unspecified) | 5.00 to 6.00
NNC(=O)c1ccc2[nH]nc(-c3ccc(F)cc3)c2c1 | 5.00 to 6.00
Cc1ccc(-c2n[nH]c3ccc(-c4nnc[nH]4)cc23)cc1 | 5.00 to 6.00
CCCc1n[nH]c(-c2ccc3[nH]nc(-c4ccc(F)cc4)c3c2)n1 | 5.00 to 6.00
O=C(O)c1ccc2[nH]nc(-c3cc4ccccc4s3)c2c1 | 5.00 to 6.00
O=C(O)c1ccc(CCc2ccc3[nH]nc(-c4ccc(F)cc4)c3c2)cc1 | ≥ 5.00
NC(=O)c1ccc2[nH]nc(C#Cc3ccccc3)c2c1 | 5.00 to 6.00
Fc1ccc(-c2n[nH]c3ccc(CCc4ccccn4)cc23)cc1 | ≥ 5.00
Cc1nnc(-c2ccc3[nH]nc(-c4ccc(F)cc4)c3c2)o1 | 5.00 to 6.00
c1n[nH]c(-c2ccc3[nH]nc(-c4ccoc4)c3c2)n1 | 5.00 to 6.00
c1cc2[nH]nc(-c3ccc4c(c3)OCO4)c2cc1-c1nnn[nH]1 | 5.00 to 6.30
c1cc(-c2n[nH]c3ccc(-c4nnn[nH]4)cc23)ccc1OCCN1CCOCC1 | 5.00 to 6.30
CCOC(=O)CCc1ccc2[nH]nc(-c3ccc(F)cc3)c2c1 | ≥ 5.00
Clc1cccc(-c2n[nH]c3ccc(-c4ncn[nH]4)cc23)c1 | 5.00 to 6.00
COc1ccc(/C=C/c2n[nH]c3ccc(-c4nc[nH]n4)cc23)cc1 | 5.00 to 6.00
Fc1ccc(-c2n[nH]c3ccc(-c4nc(-c5ccco5)n[nH]4)cc23)cc1 | 5.00 to 6.00
Cc1ccc(/C=C/c2n[nH]c3ccc(-c4nnc[nH]4)cc23)cc1 | 5.00 to 6.00
COc1ccc(-c2n[nH]c3ccc(C(N)=O)cc23)cc1 | 5.00 to 6.00
